“Also recorded” adds a separate entry of the source. Each block holds one molecule with its values, some of them ahead of it.
Tests used:
[1] = biological target: T1, CD33 on CD33-positive U-937 cells (Homo sapiens, UniProt P20138); test: Competition binding of 125I-labeled muMy9-6 to U-937 cells
T1 construct: endogenous in cells; host or cells: U-937 human histiocytic lymphoma cell line (ATCC CRL-1953.2)
Description: The My9-6 antibody has further been functionally characterized and shown to bind with high affinity to CD33 on the surface of CD33-positive U-937 cells (FIG. 1). ^125I-labeled My9-6 binds to U-937 cells and it is competed off the cells by unlabeled My9-6 and the previously characterized anti-CD33 antibody My9 (BioGenex, cat. no. 267M).
To further ascertain its specificity for binding to the CD33 antigen, a competition binding experiment was performed between labeled muMy9-6 and the commercially available anti-CD33 antibody My9. The binding experiment was performed using the method described by Goldmacher et al. (1989, J. Cell. Physiol. 141, 222-234). Murine My9-6 antibody was radiolabeled with ^125I using the Iodo-gen technique (Fraker, P. J. and Speck, J. C., 1978, Biochem. Biophys. Res. Commun. 80, 849-857). A constant amount (3×10^−9 M) of ^125I-labeled muMy9-6 was mixed with increasing concentrations of non-radioactive antibody, either unlabeled muMy9-6 or unlabelled My9, and the mixtures were incubated with cells (1×10^6 cells per sample) at 4° C. for 30 min. […] The cell pellet was then removed by cutting the centrifuge tubes at the oil interface and was used to measure the cell-associated radioactivity on a gamma-counter (model RIAgamma 1274 from LKB). The cell-associated radioactivity measured was […] against the concentrations of the unlabelled, competing antibodies. […]

[2] = test system: human HL-60 tumor cell xenografts; test: Subcutaneous HL-60 tumor xenograft model in SCID mice; format: in vivo
Description: (§1) Subcutaneous tumor model—HL-60 human promyelocytic leukemia cells (5×10^6 cells in 0.1 mL) were subcutaneously inoculated into the right flank of female SCID mice. Mice were treated by intravenous injection into a lateral tail vein starting when tumors reached 100 mm^3 in size (400 mm^3 in large tumor model). Tumor size and mouse body weight were measured twice per week. Survival model—HL-60 cells (5×10^6 cells in 0.1 mL) were intravenously injected into the lateral tail vein of female SCID mice. Eleven days after tumor cell injection treatment was started. Mice were checked every day for moribund, tumor mass, or death. Body weight was measured twice per week.
The efficacy of My9-6-DM1 in vivo was determined using SCID mice bearing human HL-60 tumor cell xenografts. HL-60 cells were injected subcutaneously and tumors were allowed to grow to an average size of 100 mm^3. Dosage is expressed as mg antibody in the conjugate, which corresponds to a DM1 dose of approximately 15 μg DM1 per mg of antibody. Tumor volume was measured as an indication of treatment efficacy and mouse body weight was monitored to indicate toxicity due to treatment.

[3] = test system: HL-60 cells injected intravenously; test: HL-60 cell mouse survival model; format: in vivo, SCID mice; details: treatment starting 11 days after cell injection
Description: FIGS. 24A & B show anti-tumor efficacy of My9-6-DM1 compared with Gentuzumab ozogamicin and standard chemotherapy in an HL-60 survival model. HL-60 cells were intravenously injected into SCID mice. Indicated treatments were started 11 days following injection of cells. Treatments were i.v. daily ×5 except for Gentuzumab ozogamicin (Q4D×3).
as §1
While the efficacy of My9-6-DM1 in the tumor xenograft model is striking, it is also of interest to look at the activity of the conjugate in a mouse survival model where HL-60 cells are injected directly into a mouse tail vein. In this model, control mice die between 30 and 50 days after cell injection. […] However, even in this model, standard chemotherapy provided no significant survival enhancement (FIG. 24B).

[4] = test system: large HL-60 tumors; test: Large HL-60 tumor xenograft model in SCID mice; format: in vivo; details: for toxicity of higher drug doses: not shown; for effect on tumor growth: standard chemotherapeutic agents, tumor volume >400 mm^3
Description: as §1
Tumors were allowed to grow to a tumor volume of >400 mm^3 prior to the initiation of treatment. In addition, a comparison of the activity of My9-6-DM1 with standard chemotherapeutic drugs was conducted. […]

[5] = in vivo; cited from earlier work
[6] = biological target: T2, CD33 on HL-60 membranes or whole cells (Homo sapiens, UniProt P20138); test: Direct binding assays on HL-60 membranes and HL-60 whole cells
T2 construct: endogenous in cells; host or cells: HL-60 human leukemic cell line (whole cells; plasma membranes prepared from HL-60)
Description: HL-60 cells were harvested from T75 flasks (NUNCLON™, cat. no. 153732), and centrifuged at about 300×g for five minutes in an Omnifuge RT tabletop centrifuge (Haereus Separations, Germany), at 4° C. The cells were resuspended at a density of 3×10^6 cells per mL in FACS buffer, comprised of 2% (v/v) goat serum (Sigma Chemical Co., St Louis, Mo.) in MEM Alpha Medium, supplemented with L-glutamine (Life Technologies, Grand Island, N.Y.). Using a multichannel pipetor, 3×10^5 cells were added to wells of a Falcon 96-well round bottom plate (cat. no. 3077) and then placed on ice. Using a Falcon 96-well flexible assay plate (cat. no. 353911), eleven twofold serial dilutions of each test or control article were prepared in duplicate in FACS buffer, from a starting concentration of 2×10^−8 M. Then, 100 μl of either test or control article was mixed with the cells. Control wells only received FACS buffer. The plate was incubated on ice for one hour, and then centrifuged for five minutes at 300× g, in a refrigerated centrifuge. Reagents were removed from the plate wells by quick inversion over a waste beaker containing 10% bleach. […] The assay plate was then analyzed on a FACScan flow cytometer interfaced with an automated 96-well sampling device (Becton Dickinson, Mountain View, Calif.). […]

T1 sequence (P20138 18-364): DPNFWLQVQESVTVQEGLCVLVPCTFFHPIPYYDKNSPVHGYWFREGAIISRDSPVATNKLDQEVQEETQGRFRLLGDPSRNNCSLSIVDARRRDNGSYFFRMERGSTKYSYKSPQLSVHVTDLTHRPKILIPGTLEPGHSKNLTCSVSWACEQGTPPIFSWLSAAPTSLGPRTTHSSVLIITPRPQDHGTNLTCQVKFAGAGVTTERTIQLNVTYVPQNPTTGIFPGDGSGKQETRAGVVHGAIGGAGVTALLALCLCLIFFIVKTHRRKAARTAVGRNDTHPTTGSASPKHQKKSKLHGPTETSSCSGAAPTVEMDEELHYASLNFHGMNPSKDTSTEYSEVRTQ
T2 sequence (P20138 18-364): as above

Molecule: My9-6: murine anti-CD33 monoclonal antibody, IgG1 kappa, hybridoma ATCC PTA-4786
competition binding curves against 125I-labeled muMy9-6 ([1]; 3×10^−9 M 125I-muMy9-6, U-937 cells, 4° C., 30 min): very similar competition binding curves
binding affinity / avidity for CD33 ([1]; CD33-positive U-937 cells): very similar binding avidities; also recorded: high affinity
effect on HL-60 tumor growth compared to vehicle control ([2]; antibody alone, dose not stated): no effect on HL-60 tumor growth
effect on tumor cell growth ([2]; antibody alone, even at 50 mg/kg): no effect on tumor cell growth
effect on tumor growth ([2]; unconjugated antibody 23 mg/kg daily for 5 days): no affect on tumor growth
effect on survival [3]: modest increase in survival

Molecule: CC(=O)[C@]1(O)Cc2c(O)c3c(c(O)c2[C@@H](O[C@H]2C[C@H](N)[C@H](O)[C@H](C)O2)C1)C(=O)c1ccccc1C3=O [idarubicin]
toxicity of higher drug doses [4]: profoundly toxic
effect on tumor growth [4]: little effect on tumor growth

Molecule: calicheamicin
toxicity in pre-clinical models [5]: hepatotoxicity

Molecule: Nc1ccn([C@@H]2O[C@H](CO)[C@@H](O)[C@@H]2O)c(=O)n1 [Ara-C]
toxicity of higher drug doses [4]: profoundly toxic
effect on tumor growth [4]: little effect on tumor growth

Molecule: COc1cc2cc(c1Cl)N(C)C(=O)C[C@H](OC(=O)[C@H](C)N(C)C(C)=O)[C@]1(C)O[C@H]1[C@H](C)[C@@H]1C[C@@](O)(NC(=O)O1)[C@H](OC)/C=C/C=C(\C)C2 [maytansine, reference compound]
mice that died two days after treatment ([2]; 350 μg/kg daily for 5 days): Three of 6
delay in tumor growth ([2]; 350 μg/kg daily for 5 days, remaining 3 mice): approximately 10 days
effect on survival [3]: significant impact on mouse survival
mice that died shortly after the start of treatment [3]: 2 of 8

binding affinity relative to wild type ([6]; HL-60 membranes and whole cells): near wild type binding affinities
B1: V1.0: most human resurfaced version of My9-6, all ten human surface residues (antibody, V domains shown)
VH: QVQLQQPGAEVVKPGASVKMSCKASGYTFTSYYIHWIKQTPGQGLEWVGVIYPGNDDISYNQKFQGKATLTADKSSTTAYMQLSSLTSEDSAVYYCAREVRLRYFDVWGQGTTVTVSS
VL: EIVLTQSPGSLAVSPGERVTMSCKSSQSVFFSSSQKNYLAWYQQIPGQSPRLLIYWASTRESGVPDRFTGSGSGTDFTLTISSVQPEDLAIYYCHQYLSSRTFGQGTKLEIKR
KD value compared with murine My9-6 ([6]; HL-60 membranes or whole cells, numbers only in FIG. 17): fall within the experimental error of the KD value of murine My9-6
